In brackets after ≈: the same amount, converted by molar mass. Counter-ions that a name gives are not always drawn. Blank lines part the entries; values can stand above or below the molecule they belong to.
Experiments:
[1] = Hydrolysis of ester prodrugs in human plasma solutions (HPLC); conditions: for half-life: pH 7.4; for kinetics (order) of hydrolysis in human plasma: 80% human plasma at 37° C., initial concentration about 10^-4 M
Protocol: Solutions of various derivatives of this invention in aqueous buffer solutions or 50-80% human plasma solutions (pH 7.4) were kept at 37° C. The initial concentration of the derivatives was in the range 3×10^-4 -10^-5 M. At various times an aliquot of the solutions was withdrawn and analyzed by HPLC for remaining derivative as well as for parent acid. For the plasma solutions the aliquot withdrawn was deproteinized with methanol, ethanol or acetonitrile and after centrifugation, the clear supernatant was injected on HPLC.
An HPLC method was used for the determination of the ester derivatives and their parent acids. In this method a reversed-phase LiChrosorb RP-8 column (250×4 mm) was eluted at ambient temperature with mixtures of methanol and 0.01M acetate buffer pH 5.0, methanol and 0.01M phosphate buffer pH 4.5 or methanol and 0.02M phosphate buffer pH 3.5. the composition of the eluant was adjusted for each compound in order to provide an appropriate retention time and separation of ester and the corresponding acid. The flow-rate was 0.6-1.6 ml/min and the column effluent was monitored spectrophotometrically at an appropriate wavelength. Quantitation of the compounds was done by measurement of the peak heights in relation to those of standards chromatographed under the same conditions.

[2] = Solubility in water or aqueous solutions; conditions: for solubility: water
[3] = cited from earlier work
[4] = cited from earlier work; remark: listed apart in the source
[5] = Hydrolysis in aqueous buffer solution pH 7.4; type: physicochemical; conditions: pH 7.4, 37° C., read-out: half-life of hydrolysis in pure buffer solution
[6] = Stability in acidic media (0.01M HCl); type: physicochemical; conditions: 37° C., read-out: hydrolysis in 0.01M HCl
[7] = not given; remark: listed apart in the source
[8] = Oral bioavailability study in rabbits (plasma concentrations); type: in vivo

half-life ([1]; 50% plasma): 0.83 min | solubility [2]: 5400 µg/mL (≈ 24.6 mM)
Structure (SMILES): O=C(OCC(=O)N1CCC1)c1ccccc1

half-life ([1]; 50% plasma): 5.7 min | solubility [2]: 6300 µg/mL (≈ 27 mM)
Structure (SMILES): O=C(OCC(=O)N1CCCC1)c1ccccc1

half-life ([1]; 50% plasma): 2.5 min | log P (partition coefficient between octanol and water): 1.95 | solubility [2]: 780 µg/mL (≈ 3.15 mM)
Structure (SMILES): O=C(OCC(=O)N1CCCCC1)c1ccccc1

half-life ([1]; 50% plasma): 1 min | solubility [2]: 750 µg/mL (≈ 2.87 mM)
Structure (SMILES): O=C(OCC(=O)N1CCCCCC1)c1ccccc1

half-life ([1]; 50% plasma): 4.9 min | log P (partition coefficient between octanol and water): 0.90 | solubility [2]: 4200 µg/mL (≈ 16.8 mM)
Structure (SMILES): O=C(OCC(=O)N1CCOCC1)c1ccccc1

half-life ([1]; 50% plasma): 5.8 min
Structure (SMILES): O=C(OCC(=O)N1CCC(O)CC1)c1ccccc1

half-life ([1]; 50% plasma): 0.4 min | solubility [2]: 150 µg/mL (≈ 0.545 mM)
Structure (SMILES): CC1CCCC(C)N1C(=O)COC(=O)c1ccccc1 (centres unmarked)

half-life ([1]; 50% plasma): 2.3 min | log P (partition coefficient between octanol and water): 0.20 | solubility [2]: 1500 µg/mL (≈ 5.43 mM)
Structure (SMILES): NC(=O)[C@@H]1CCCN1C(=O)COC(=O)c1ccccc1

half-life ([1]; 50% plasma): 1.9 min
Structure (SMILES): COC(=O)[C@@H]1CCCN1C(=O)COC(=O)c1ccccc1

half-life ([1]; 50% plasma): 18 min | log P (partition coefficient between octanol and water): 1.83 | solubility [2]: 490 µg/mL (≈ 1.98 mM)
Structure (SMILES): O=C(OCC(=O)N1CCCC1=O)c1ccccc1

half-life ([1]; 50% plasma): 12.7 min | solubility [2]: > 100000 µg/mL
Structure (SMILES): CN1CCN(C(=O)COC(=O)c2ccccc2)CC1

half-life ([1]; 80% plasma): > 6000 min
Structure (SMILES): CCOC(=O)c1ccc(N)cc1 [4-Aminobenzoic acid ethyl ester, reference compound]

half-life ([1]; 80% plasma): > 3000 min
Structure (SMILES): COC(=O)c1ccc(O)cc1 [4-Hydroxybenzoic acid methyl ester, reference compound]

Structure (SMILES): CCOC(=O)[C@H](CCc1ccccc1)N[C@@H](C)C(=O)N1CCC[C@H]1C(=O)O [Enalapril]
availability of the active parent acid ([3]; Todd & Heel, 1986): incomplete availability of the active parent acid | hydrolysis by plasma enzymes / stability in plasma [4]: Plasma enzymes do not hydrolyze the ester

half-life ([1]; 50% plasma): 0.1 min
Structure (SMILES): CCN(C)C(=O)COC(=O)c1ccccc1 [Example 9]

Structure (SMILES): CCN(CC)C(=O)COC(=O)c1ccccc1 [Example 10, 2-(benzoyloxy)-N,N-diethylacetamide]
half-life [5]: > 41.7 days | degraded at 3 h [6]: < 1% | S, solubility in water [7]: 2000 µg/mL

half-life ([1]; 50% plasma): 0.08 min | S, solubility in water [7]: 710 µg/mL | log P (partition coefficient between octanol and water): 2.34
Structure (SMILES): C=CCN(CC=C)C(=O)COC(=O)c1ccccc1 [Example 13]

S, solubility in water [7]: 80 µg/mL
Structure (SMILES): CCCCN(CCCC)C(=O)COC(=O)c1ccccc1 [Example 14]

half-life ([1]; 50% plasma): < 1.5 min | solubility [2]: 81 µg/mL (≈ 0.278 mM)
Structure (SMILES): CC(C)CN(CC(C)C)C(=O)COC(=O)c1ccccc1 [Example 15]

S, solubility in water [7]: 720000 µg/mL | solubility [2]: > 700000 µg/mL
Structure (SMILES): O=C(OCC(=O)N(CCO)CCO)c1ccccc1 [Example 17, 2-(benzoyloxy)-N-N-(di-β-hydroxyethyl)acetamide]

half-life ([1]; 50% plasma): 407 min
Structure (SMILES): O=C(OCC(=O)N(C1CCCCC1)C1CCCCC1)c1ccccc1 [Example 20]

half-life ([1]; 50% plasma): 5.6 min
Structure (SMILES): CN(C)C(=O)CCOC(=O)c1ccccc1 [Example 21]

t1/2, half-life of hydrolysis in 50% human plasma ([1]; 50% human plasma (pH 7.4) at 37° C.): 0.12 min | solubility [2]: > 100000 µg/mL
Structure (SMILES): CN(C)CCN(C)C(=O)COC(=O)c1ccccc1 [Example 23a]

half-life ([1]; 50% plasma): 0.25 min
Structure (SMILES): COCCN(CCOC)C(=O)COC(=O)c1ccccc1 [Example 23b]

Structure (SMILES): CCN(CC)C(=O)COC(=O)[C@@H](C)c1ccc2cc(OC)ccc2c1 [Example 35, 2-[(+)-6-METHOXY-α-METHYL-2-NAPHTHALENEACETYLOXY]-N,N-[…]]
kinetics (order) of hydrolysis in human plasma [1]: first-order kinetics

half-life ([1]; plasma): 0.33 min
Structure (SMILES): CN(CC(N)=O)C(=O)COC(=O)c1ccccc1O [Example 37, 2-[2-HYDROXYBENZOYLOXY]-(N-METHYL-N-CARBAMOYLMETHYL)-ACETAMIDE]

Structure (SMILES): Br.CCN(CC)C(=O)COC(=O)[C@@H](N)Cc1ccccc1 [Example 38]
kinetics (order) of hydrolysis in human plasma [1]: first-order kinetics

half-life ([1]; plasma): 9.6 min
Structure (SMILES): CC(C)Cc1ccc(C(C)C(=O)OCC(=O)N(C)CC(N)=O)cc1 (stereo not drawn) [Example 41, 2-[α-METHYL-4-(2-METHYLPROPYL)BENZENEACETYLOXY]-(N-METHYL-N-CARBAMOYLMETHYL)ACETAMIDE]

Structure (SMILES): COc1ccc2cc([C@H](C)C(=O)OCC(=O)N(CCO)CCO)ccc2c1 [Example 44, 2-[(+)-6-METHOXY-α-METHYL-2-NAPHTHALENEACETYLOXY]-N,N-(DI-β-HYDROXYETHYL)ACETAMIDE]
absorption following oral administration [8]: efficiently absorbed | conversion of prodrug to naproxen in vivo [8]: rapidly converted back to naproxen in vivo | plasma concentration of intact naproxen prodrug ([8]; equivalent of 4.8 mg/kg naproxen): < 100 ng/mL | solubility in 0.01M HCl relative to parent naproxen ([2]; 0.01M HCl, versus naproxen): more than 20 -fold

half-life ([1]; plasma): 10.8 min
Structure (SMILES): CC(C)Cc1ccc(C(C)C(=O)OCC(=O)N(C)CC(=O)NCN2CCOCC2)cc1 (stereo not drawn) [Example 51, 2-[α-METHYL-4-(2-METHYLPROPYL)BENZENEACETYLOXY]-(N-METHYL-N-(N'-MORPHOLINOMETHYLCARBAMOYL)METHYL)ACETAMIDE HYDROCHLORIDE]

half-life ([1]; plasma): 1.5 min
Structure (SMILES): COc1ccc2cc([C@H](C)C(=O)OCC(=O)N(C)C)ccc2c1 [Example 52]

half-life ([1]; plasma): 2.5 min
Structure (SMILES): COc1ccc2cc([C@H](C)C(=O)OCC(=O)N(C)CC(N)=O)ccc2c1 [Example 53]

half-life ([1]; plasma): 8.6 min
Structure (SMILES): CC(C)Cc1ccc(C(C)C(=O)OCC(=O)N(C)C)cc1 (centres unmarked) [Example 54]

half-life ([1]; plasma): 1.1 min
Structure (SMILES): CC(C(=O)OCC(=O)N(C)C)c1cccc(C(=O)c2ccccc2)c1 (centres unmarked) [Example 55]

half-life ([1]; 80% plasma): 0.5 min | half-life ([1]; plasma): 0.5 min
Structure (SMILES): CCN(CC)C(=O)COC(=O)C(C)c1cccc(C(=O)c2ccccc2)c1 (centres unmarked) [Example 56]

half-life ([1]; plasma): 2.1 min
Structure (SMILES): CN(CC(N)=O)C(=O)COC(=O)Cc1ccc(-c2ccccc2)cc1 [Example 57]

half-life ([1]; plasma): 10.8 min
Structure (SMILES): CC(C(=O)OCC(=O)N(C)C)c1ccc(-c2ccccc2)c(F)c1 (centres unmarked) [Example 58]

half-life ([1]; plasma): 4.7 min
Structure (SMILES): CCN(CC)C(=O)COC(=O)C(C)c1ccc(-c2ccccc2)c(F)c1 (centres unmarked) [Example 59]

half-life ([1]; plasma): 9.2 min
Structure (SMILES): CN(C)C(=O)COC(=O)CCC(=O)c1ccc(-c2ccccc2)cc1 [Example 60]

half-life ([1]; 80% plasma): 3.8 min | half-life ([1]; plasma): 3.8 min
Structure (SMILES): CCN(CC)C(=O)COC(=O)CCC(=O)c1ccc(-c2ccccc2)cc1 [Example 61]

half-life ([1]; plasma): 140 min
Structure (SMILES): COc1ccc2c(c1)c(CC(=O)OCC(=O)N(C)CCO)c(C)n2C(=O)c1ccc(Cl)cc1 [Example 63]

half-life ([1]; plasma): 88 min
Structure (SMILES): COc1ccc2c(c1)c(CC(=O)OCC(=O)N(CCO)CCO)c(C)n2C(=O)c1ccc(Cl)cc1 [Example 64]

half-life ([1]; plasma): 2.8 min
Structure (SMILES): Cc1c(Cl)cccc1Nc1ccccc1C(=O)OCC(=O)N(C)C [Example 65]

half-life ([1]; 80% plasma): 5 min | half-life ([1]; plasma): 5 min
Structure (SMILES): CCN(CC)C(=O)COC(=O)c1ccccc1Nc1cccc(Cl)c1C [Example 66]

half-life ([1]; plasma): 3 min
Structure (SMILES): CCN(CCO)C(=O)COC(=O)c1ccccc1Nc1cccc(Cl)c1C [Example 67]

half-life ([1]; plasma): 79 min
Structure (SMILES): CCN(CC)C(=O)COC(=O)c1cc(-c2ccc(F)cc2F)ccc1O [Example 70]

half-life ([1]; plasma): 26 min
Structure (SMILES): CCN(CC)C(=O)COC(=O)CC1=C(C)/C(=C/c2ccc([S+](C)[O-])cc2)c2ccc(F)cc21 (centres unmarked) [Example 73]

half-life ([1]; plasma): 0.08 min
Structure (SMILES): CN(C)C(=O)COC(=O)c1ccccc1O [Example 79]

half-life ([1]; 80% plasma): 0.08 min | half-life ([1]; plasma): 0.08 min
Structure (SMILES): CCN(CC)C(=O)COC(=O)c1ccccc1O [Example 80]

half-life ([1]; 80% plasma): 282 min
Structure (SMILES): COC(=O)CCC(=O)c1ccc(-c2ccccc2)cc1 [Fenbufen methyl ester, reference compound]

half-life ([1]; 80% plasma): 9000 min
Structure (SMILES): COC(=O)Cc1c(C)n(C(=O)c2ccc(Cl)cc2)c2ccc(OC)cc12 [Indomethacin methyl ester, reference compound]

kinetics (order) of hydrolysis in human plasma [1]: first-order kinetics | half-life ([1]; plasma): 2.3 min
Structure (SMILES): CC(C(=O)OCC(=O)N(C)CC(N)=O)c1cccc(C(=O)c2ccccc2)c1 (centres unmarked) [Ketoprofen (R1=CH3, R2=CH2CONH2)]

half-life ([1]; 80% plasma): 59 min
Structure (SMILES): CCOC(=O)[C@@H](N)Cc1ccc(O)cc1 [L-Tyrosine ethyl ester, reference compound]

Structure (SMILES): CCOC(=O)[C@H](C)C[C@@H](C)C(=O)N1c2ccccc2C[C@H]1C(=O)O [Pentopril]
part of oral dose deesterified in vivo to the active parent acid ([3]; oral, Rakhit & Tipnis, 1985): less than 50% | hydrolysis by plasma enzymes / stability in plasma [4]: highly stable in human plasma

half-life ([1]; 50% plasma): 0.08 min | solubility [2]: > 200000 µg/mL
Structure (SMILES): CN(C)CC(=O)OCCN(C)C(=O)COC(=O)c1ccccc1 [R1=CH3, R2=CH2CH2OOCCH2N(CH3)2, n=1]

half-life ([1]; plasma): 22 min
Structure (SMILES): CN1CCN(C(=O)COC(=O)c2ccccc2O)CC1 [Salicylic acid]

half-life ([1]; 80% plasma): 6000 min
Structure (SMILES): COC(=O)c1ccccc1Nc1cccc(Cl)c1C [Tolfenamic acid methyl ester, reference compound]

half-life ([1]; 80% plasma): 13.4 min | half-life ([1]; plasma): 13.4 min
Structure (SMILES): CCN(CC)C(=O)COC(=O)Cc1ccc(C(=O)c2ccc(C)cc2)n1C [Tolmetin (R1=C2H5, R2=C2H5)]

half-life ([1]; 80% plasma): 1140 min
Structure (SMILES): COC(=O)Cc1ccc(C(=O)c2ccc(C)cc2)n1C [Tolmetin methyl ester, reference compound]

half-life ([1]; 80% plasma): > 180 min
Structure (SMILES): COC(=O)[C@H]1CC[C@H](CN)CC1 [Tranexamic acid methyl ester, reference compound]

From patent publication US5073641A, “Prodrug derivatives of carboxylic acid drugs” (priority 1986, dated 1991)
